Test results: paper PMC12856970 (Clinical Pharmacology in Drug Development, 2025)
Entries after “also recorded” stand apart in the source; their conditions may differ. Like-named read-outs stand apart in the source and are kept apart here.

Legend:
[1] = Phase 1 DDI study: plasma PK of atorvastatin and its metabolites after atorvastatin alone or with steady-state asciminib (LC-MS/MS, non-compartmental); details: for AUCinf, Gmean (GCV%) / AUCinf, Mean (SD) / AUCinf, Median (min, max) / AUClast, Gmean (GCV%) / AUClast, Mean (SD) / AUClast, Median (min, max) / Cmax, Gmean (GCV%) / Cmax, Mean (SD) / Cmax, Median (min, max) / T1/2, Gmean (GCV%) / T1/2, Mean (SD) / T1/2, Median (min, max) / Tmax, Median (min, max): plasma; for AUCinf, Adjusted Gmean / AUClast, Adjusted Gmean / Cmax, Adjusted Gmean: linear mixed-effects model, back-transformed; for AUCinf Gmean ratio / AUClast Gmean ratio / Cmax Gmean ratio: atorvastatin + asciminib/atorvastatin; for Effect of asciminib on Cmax, AUClast and AUCinf (in words): atorvastatin + steady-state asciminib versus atorvastatin alone
[2] = parameters: method as in PMID 30580575; details: monotherapies; cited from earlier work
[3] = test system: CYP3A4; details: midazolam with asciminib 200 mg BID; cited from earlier work
[4] = test system: CYP3A4; details: midazolam single dose co-administered with asciminib 40 mg BID at steady state vs alone; cited from earlier work
[5] = cited from earlier work
[6] = test system: BCRP; details: in vitro; cited from earlier work
[7] = test system: P‐gp; details: in vitro; cited from earlier work
[8] = Phase 1 DDI study: safety and tolerability (AEs, ECG); format: in vivo, human (healthy participants); details: asciminib 80 mg QD multiple doses alone or with atorvastatin 20 mg
[9] = test system: OATP1B1; details: in vitro; cited from earlier work
[10] = test system: OATP1B; parameters: method as in data on file; details: single asciminib dose of 200 mg; ref data on file; cited from earlier work
[11] = test system: OATP1B3; details: in vitro; cited from earlier work
[12] = Phase 1 DDI study: asciminib plasma trough concentration (Ctrough); format: in vivo, human (healthy participants); details: asciminib 80 mg QD (i.e. on day 8)
[13] = test system: OATP; parameters: method as in PMID 27317801; details: after a single dose of rifampicin, healthy participants; cited from earlier work
[14] = test system: OATP1B; assay: Phase 1 DDI study: plasma CP-1 AUC0-24 as endogenous biomarker of OATP1B, without or with steady-state asciminib; details: for AUC0‐24, Adjusted Gmean: linear mixed-effects model
[15] = atorvastatin 20 mg single dose + asciminib 80 mg QD at steady state (day 9)
[16] = atorvastatin 20 mg single oral dose alone (day 1)
[17] = atorvastatin + asciminib 80 mg QD steady state
[18] = atorvastatin + asciminib at steady state
[19] = steady state, 40 mg BID regimen

With CC(C)c1c(C(=O)Nc2ccc(O)cc2)c(-c2ccccc2)c(-c2ccc(F)cc2)n1CC[C@@H](O)C[C@@H](O)CC(=O)O [p‐Hydroxy‐atorvastatin, p‐hydroxy‐atorvastatin] the “AUCinf, Gmean (GCV%)” value [1, 15] was 6.2 (95.2) ng x h/mL, the “AUCinf, Mean (SD)” value [1, 15] was 7.67 (4.91) ng x h/mL and the “AUCinf, Median (min, max)” value [1, 15] was 6.63 (1.50, 15.7) ng x h/mL. The “AUClast, Gmean (GCV%)” value [1, 15] was 2.9 (87.7) ng x h/mL, the “AUClast, Mean (SD)” value [1, 15] was 3.83 (3.28) ng x h/mL and the “AUClast, Median (min, max)” value [1, 15] was 2.99 (0.717, 13.6) ng x h/mL. The “Cmax, Gmean (GCV%)” value [1, 15] was 0.16 (48.0) ng/mL, the “Cmax, Mean (SD)” value [1, 15] was 0.171 (0.0880) ng/mL and the “Cmax, Median (min, max)” value [1, 15] was 0.145 (0.0699, 0.425) ng/mL. For the same molecule, the “T1/2, Gmean (GCV%)” value [1, 15] was 22.8 (58.5) h, the “T1/2, Mean (SD)” value [1, 15] was 25.3 (10.9) h and the “T1/2, Median (min, max)” value [1, 15] was 26.0 (8.45, 40.9) h. The “Tmax, Median (min, max)” value [1, 15] was 10.00 (1.00, 12.00) h, the “Tmax, Median (min, max)” value ([1]; atorvastatin 20 mg single dose + asciminib 80 mg QD at steady state (day 9), listed as p‐hydroxy‐atorvastatin) was “approximately 10 h” and the “AUCinf, Gmean (GCV%)” value [1, 16] was 7.4 (53.2) ng x h/mL. The “AUCinf, Mean (SD)” value [1, 16] was 8.16 (4.48) ng x h/mL, the “AUCinf, Median (min, max)” value [1, 16] was 6.60 (4.86, 14.6) ng x h/mL and the “AUClast, Gmean (GCV%)” value [1, 16] was 3.1 (69.8) ng x h/mL. The “AUClast, Mean (SD)” value [1, 16] was 3.73 (2.75) ng x h/mL, the “AUClast, Median (min, max)” value [1, 16] was 2.56 (0.964, 12.5) ng x h/mL and the “Cmax, Gmean (GCV%)” value [1, 16] was 0.17 (53.8) ng/mL. The “Cmax, Mean (SD)” value [1, 16] was 0.189 (0.112) ng/mL, the “Cmax, Median (min, max)” value [1, 16] was 0.144 (0.0793, 0.468) ng/mL and the “T1/2, Gmean (GCV%)” value [1, 16] was 30.4 (24.6) h. The “T1/2, Mean (SD)” value [1, 16] was 31.1 (7.50) h, the “T1/2, Median (min, max)” value [1, 16] was 30.4 (24.3, 39.3) h and the “Tmax, Median (min, max)” value [1, 16] was 10.00 (1.50, 12.01) h. The “Tmax, Median (min, max)” value ([1]; atorvastatin 20 mg single oral dose alone (day 1), listed as p‐hydroxy‐atorvastatin) was “approximately 10 h”, the “AUCinf, Adjusted Gmean” value [1, 17] was 5.92 ng x h/mL and the “AUClast, Adjusted Gmean” value [1, 17] was 2.89 ng x h/mL. The “Cmax, Adjusted Gmean” value [1, 17] was 0.156 ng/mL, the “Time post-dose at which mean Cmax was observed (mean concentration-time profile)” value (“Time post-dose” below) [1, 18] was 10 h and the “AUCinf Gmean ratio” value [1] was 0.74. For the same molecule, the “AUClast Gmean ratio” value [1] was 0.98, the “Cmax Gmean ratio” value [1] was 0.98 and the “Effect of asciminib on Cmax, AUClast and AUCinf (in words)” value [1] was “did not affect; also recorded: negligible”. For the same molecule, the “Time post-dose” value ([1]; atorvastatin alone) was 10 h, the “AUCinf, Adjusted Gmean” value ([1]; atorvastatin alone) was 8.04 ng x h/mL and the “AUClast, Adjusted Gmean” value ([1]; atorvastatin alone) was 2.96 ng x h/mL. The “Cmax, Adjusted Gmean” value ([1]; atorvastatin alone) was 0.160 ng/mL.
In the case of CC(C)c1c(C(=O)Nc2ccccc2)c(-c2ccccc2)c(-c2ccc(F)cc2)n1CC[C@@H](O)C[C@@H](O)CC(=O)O [Atorvastatin], the “Rate of hospitalization due to rhabdomyolysis” value [2] is listed as 0.44 per 10,000 patient‐years.
In the case of Cc1ncc2n1-c1ccc(Cl)cc1C(c1ccccc1F)=NC2 [midazolam], the “Increase in AUCinf (PBPK prediction)” value [3] is listed as 88%, the “Increase in Cmax (PBPK prediction)” value [3] is listed as 58% and the “Increase in AUCinf” value [4] is listed as 28%. The “Increase in AUClast” value [4] was 27% and the “Increase in Cmax” value [4] was 11%.
For O=C(Nc1ccc(OC(F)(F)Cl)cc1)c1cnc(N2CC[C@@H](O)C2)c(-c2ccn[nH]2)c1 [asciminib, Asciminib], the “Time of dosing to reach steady-state levels” value [5] is listed as ≤ 3 days, the “AUC0‐12, Gmean” value [5, 19] is listed as 5262 ng x h/mL and the “Cmax, Gmean” value [5, 19] is listed as 793 ng/mL. The “Cmax, Gmean” value ([5]; steady state, 80 mg QD regimen) was 1781 ng/mL, the “Inhibition of BCRP (in words)” value [6] was “could inhibit; also recorded: can inhibit” and the “Inhibition of P‐gp (in words)” value [7] was “could inhibit; also recorded: can inhibit”. For the same molecule, the “Tolerability (in words)” value [8] was “well tolerated”, the “Inhibition of OATP1B1 (in words)” value [9] was “could inhibit; also recorded: can inhibit” and the “DDI effect on CP‐1 (in words)” value [10] was “no DDI effect”. For the same molecule, the “Inhibition of OATP1B3 (in words)” value [11] was “could inhibit; also recorded: can inhibit” and the “Time of dosing until steady state was attained” value [12] was 3 days.
For CC(C)c1c(C(=O)Nc2ccccc2O)c(-c2ccccc2)c(-c2ccc(F)cc2)n1CC[C@@H](O)C[C@@H](O)CC(=O)O [o‐Hydroxy‐atorvastatin, o‐hydroxy‐atorvastatin], the “AUCinf, Gmean (GCV%)” value [1, 15] was 41.7 (34.9) ng x h/mL, the “AUCinf, Mean (SD)” value [1, 15] was 44.1 (15.5) ng x h/mL and the “AUCinf, Median (min, max)” value [1, 15] was 42.8 (23.6, 81.7) ng x h/mL. For the same molecule, the “AUClast, Gmean (GCV%)” value [1, 15] was 39.2 (36.8) ng x h/mL, the “AUClast, Mean (SD)” value [1, 15] was 41.7 (15.4) ng x h/mL and the “AUClast, Median (min, max)” value [1, 15] was 40.1 (21.4, 79.2) ng x h/mL. For the same molecule, the “Cmax, Gmean (GCV%)” value [1, 15] was 3.98 (45.4) ng/mL, the “Cmax, Mean (SD)” value [1, 15] was 4.27 (2.11) ng/mL and the “Cmax, Median (min, max)” value [1, 15] was 3.88 (1.56, 11.3) ng/mL. For the same molecule, the “T1/2, Gmean (GCV%)” value [1, 15] was 11.7 (28.4) h, the “T1/2, Mean (SD)” value [1, 15] was 12.2 (3.43) h and the “T1/2, Median (min, max)” value [1, 15] was 12.2 (7.33, 21.2) h. The “Tmax, Median (min, max)” value [1, 15] was 1.50 (0.50, 6.00) h, the “AUCinf, Gmean (GCV%)” value [1, 16] was 41.2 (34.7) ng x h/mL and the “AUCinf, Mean (SD)” value [1, 16] was 43.4 (14.3) ng x h/mL. The “AUCinf, Median (min, max)” value [1, 16] was 44.1 (23.1, 77.7) ng x h/mL, the “AUClast, Gmean (GCV%)” value [1, 16] was 37.0 (42.2) ng x h/mL and the “AUClast, Mean (SD)” value [1, 16] was 39.8 (15.0) ng x h/mL. The “AUClast, Median (min, max)” value [1, 16] was 41.6 (15.2, 75.8) ng x h/mL, the “Cmax, Gmean (GCV%)” value [1, 16] was 3.66 (56.9) ng/mL and the “Cmax, Mean (SD)” value [1, 16] was 4.14 (1.98) ng/mL. The “Cmax, Median (min, max)” value [1, 16] was 4.04 (1.42, 8.11) ng/mL, the “T1/2, Gmean (GCV%)” value [1, 16] was 9.64 (28.0) h and the “T1/2, Mean (SD)” value [1, 16] was 10.0 (2.95) h. The “T1/2, Median (min, max)” value [1, 16] was 9.67 (5.12, 19.9) h, the “Tmax, Median (min, max)” value [1, 16] was 2.00 (0.50, 5.00) h and the “AUCinf, Adjusted Gmean” value [1, 17] was 41.7 ng x h/mL. The “AUClast, Adjusted Gmean” value [1, 17] was 39.4 ng x h/mL, the “Cmax, Adjusted Gmean” value [1, 17] was 3.95 ng/mL and the “Time post-dose” value [1, 18] was 2 h. For the same molecule, the “AUCinf Gmean ratio” value [1] was 1.02, the “AUClast Gmean ratio” value [1] was 1.07 and the “Cmax Gmean ratio” value [1] was 1.08. For the same molecule, the “Effect of asciminib on Cmax, AUClast and AUCinf (in words)” value [1] was “did not affect; also recorded: comparable between treatments; also recorded: negligible”, the “Time post-dose” value ([1]; atorvastatin alone) was 2 h and the “AUCinf, Adjusted Gmean” value ([1]; atorvastatin alone) was 40.7 ng x h/mL. The “AUClast, Adjusted Gmean” value ([1]; atorvastatin alone) was 37.0 ng x h/mL and the “Cmax, Adjusted Gmean” value ([1]; atorvastatin alone) was 3.66 ng/mL.
For CC[C@H](C)C(=O)O[C@H]1C[C@H](O)C=C2C=C[C@H](C)[C@H](CC[C@@H](O)C[C@@H](O)CC(=O)O)[C@H]21 [pravastatin], the “Rate of hospitalization due to rhabdomyolysis” value [2] is listed as 0.44 per 10,000 patient‐years.
In the case of coproporphyrin‐1 [CP‐1], the “Increase in Cmax” value [13] is listed as 5.7 fold, the “AUC0‐24 Gmean ratio” value ([14]; atorvastatin + asciminib/atorvastatin) is listed as 1.02 and the “Effect of asciminib on CP‐1 plasma concentrations (in words)” value ([14]; steady-state asciminib 80 mg QD) is listed as “not affected; also recorded: remained unaffected”. For the same molecule, the “AUC0‐24, Adjusted Gmean” value ([14]; treatment 'Atorvastatin + asciminib' (steady-state asciminib)) was 12,500 pg x h/mL, the “AUC0‐24, Adjusted Gmean” value ([14]; treatment 'Atorvastatin' (without asciminib)) was 12,300 pg x h/mL and the “AUC0‐24, Gmean (GCV%)” value ([14]; with asciminib 80 mg QD, day 8, plasma) was 12,600 pg x h/mL. The “AUC0‐24, Gmean (GCV%)” value ([14]; without asciminib, day 4, plasma) was 12,300 pg x h/mL.
